Structures can show the parent of a compound that is named as a salt.
Legend:
TMPRSS2 in prostasomes = target: T1, TMPRSS2 in prostasomes (Homo sapiens, UniProt O15393); experiment: Inhibitor screening assay with intact prostasomes (trypsin-like activity, Boc-QAR-AMC substrate, fluorescence); format: biochemical; conditions: 15 minutes of incubation at 37°C, 30 µM Boc-QAR-AMC, read-out: Inhibitory effect (%): percentage of inhibited trypsin-like activity
T1 construct: Prostasomes or extracellular vesicles were isolated from semen samples using ultracentrifugation and size-exclusion chromatography; from tissue; host or cells: prostasomes (extracellular vesicles) from pooled semen samples
Protocol: Trypsin-like activity in the intact prostasomes was determined using 100 µM Boc-QAR-AMC (Bachem) in 50 mM Tris 120 mM NaCl pH 8,0. Fluorescence was measured kinetically at 37°C for 20 minutes on a Tecan F200 multi-plate reader at an excitation and emission wavelength of 380 nm and 465 nm, respectively.
On the one hand, intact prostasomes and on the other hand, medium containing recombinant TMPRSS2 (rTMPRSS2) were used. The prostasome suspension and rTMPRSS2 were diluted so that less than 10% substrate conversion was observed after 30 minutes of measurement and trypsin-like activities of both preparations were similar (approximately 0.025 U/L). The inhibitors were added to the samples in concentrations of 10 µM, 1 µM and 100 nM, followed by 15 minutes of incubation at 37°C. The substrate, Boc-QAR-AMC (Bachem), was added in a final concentration of 30 µM. […] Fluorescence was measured kinetically at 37°C for 20 minutes on a Tecan F200 multi-plate reader at an excitation and emission wavelength of 380 nm and 465 nm, respectively. The inhibitory effect was calculated by dividing the trypsin-like activity without inhibitor by the activity with inhibitor and was expressed as percentage inhibition.

[1] = target: T2, recombinant TMPRSS2 (rTMPRSS2) (Homo sapiens, UniProt O15393); experiment: Inhibitor screening assay with medium containing recombinant TMPRSS2 (trypsin-like activity, Boc-QAR-AMC substrate, fluorescence); format: biochemical; conditions: 15 minutes of incubation at 37°C, 30 µM Boc-QAR-AMC, read-out: Inhibitory effect (%): percentage of inhibited trypsin-like activity
T2 construct: The expression vector, encoding the serine protease domain of TMPRSS2, a His-tag and a secretion signal; His-tag; secretion signal; made in house; host or cells: HEK293T cells, transient transfection; unpurified cell medium used
T2 sequence (O15393 256-492 limits assumed): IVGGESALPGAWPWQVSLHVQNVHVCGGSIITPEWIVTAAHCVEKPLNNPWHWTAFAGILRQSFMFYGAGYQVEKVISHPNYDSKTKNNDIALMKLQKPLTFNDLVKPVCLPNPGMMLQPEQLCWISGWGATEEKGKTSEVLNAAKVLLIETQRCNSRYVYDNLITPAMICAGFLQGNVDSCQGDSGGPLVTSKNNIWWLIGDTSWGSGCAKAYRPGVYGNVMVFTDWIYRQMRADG
Protocol: Cell medium containing the TMPRSS2 serine protease domain was collected 4 days post-transfection and trypsin-like activity was determined as described above.
On the one hand, intact prostasomes and on the other hand, medium containing recombinant TMPRSS2 (rTMPRSS2) were used. The prostasome suspension and rTMPRSS2 were diluted so that less than 10% substrate conversion was observed after 30 minutes of measurement and trypsin-like activities of both preparations were similar (approximately 0.025 U/L). The inhibitors were added to the samples in concentrations of 10 µM, 1 µM and 100 nM, followed by 15 minutes of incubation at 37°C. The substrate, Boc-QAR-AMC (Bachem), was added in a final concentration of 30 µM. This concentration was determined to be the Michaelis-Menten constant for Boc-QAR-AMC and recombinant TMPRSS2. Fluorescence was measured kinetically at 37°C for 20 minutes on a Tecan F200 multi-plate reader at an excitation and emission wavelength of 380 nm and 465 nm, respectively. The inhibitory effect was calculated by dividing the trypsin-like activity without inhibitor by the activity with inhibitor and was expressed as percentage inhibition.

T1 sequence (O15393 256-492 limits assumed): as above
T1 sequence (O15393 1-255 limits assumed): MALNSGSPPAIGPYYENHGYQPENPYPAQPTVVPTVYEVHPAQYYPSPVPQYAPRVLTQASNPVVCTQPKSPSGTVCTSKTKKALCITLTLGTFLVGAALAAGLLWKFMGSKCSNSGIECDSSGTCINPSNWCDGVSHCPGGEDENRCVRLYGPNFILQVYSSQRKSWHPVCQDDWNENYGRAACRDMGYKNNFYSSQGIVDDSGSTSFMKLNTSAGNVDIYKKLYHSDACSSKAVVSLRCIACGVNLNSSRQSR

Work on `CN(C)C(=O)COC(=O)Cc1ccc(OC(=O)c2ccc(NC(=N)N)cc2)cc1` [Camostat, camostat mesylate] yielded an inhibition at 0.1 µM (TMPRSS2 in prostasomes; 100 nM inhibitor) of 99%, an inhibition at 1 µM (TMPRSS2 in prostasomes; 1 µM inhibitor) of 100% and an inhibition at 10 µM (TMPRSS2 in prostasomes; 10 µM inhibitor) of 100%. For the same molecule, the inhibition at 0.1 µM ([1]; 100 nM inhibitor) was 73%, the inhibition at 1 µM ([1]; 1 µM inhibitor) was 88% and the inhibition at 10 µM ([1]; 10 µM inhibitor) was 100%.

Reference: patent EP4063856A1, “METHODS AND COMPOSITIONS FOR IN VITRO SCREENING OF PROTEASE INHIBITORS” (Universiteit Antwerpen, priority 2021, dated 2022)
